Test results reported in ChEMBL document CHEMBL1150635, “Cytotoxic pyrrolo- and furanoterpenoids from the sponge sarcotragus species” (2002).
≈ marks a conversion by molar mass, not a printed value.

Legend:
Type in all cases: functional
Conditions in all cases: read-out: ED50 (the source's name)
XF498 = assay: Cytotoxicity against human XF498 cells
HCT-15 = assay: Cytotoxicity against human HCT15 cells
A549 = assay: Cytotoxicity against human A549 cells
SK-MEL-2 = assay: Cytotoxicity against human SK-MEL-2 cells
SK-OV-3 = assay: Cytotoxicity against human SKOV3 cells

Row | SMILES | EC50 (XF498) [µg/mL] | EC50 (HCT-15) [µg/mL] | EC50 (A549) [µg/mL] | EC50 (SK-MEL-2) [µg/mL] | EC50 (SK-OV-3) [µg/mL]
1 | CO[C@]1(Cc2ccoc2)C=C(CCC/C(C)=C\CC[C@@H](C)/C=C2\OC(=O)C(C)=C2O)C(=O)O1 [SARCOTIN H] | 6.3 (≈ 13.8 µM) | 6.1 (≈ 13.4 µM) | 6.7 (≈ 14.7 µM) | 5.9 (≈ 12.9 µM) | 6.8 (≈ 14.9 µM)
2 | CC1=C(O)[C@@H](C/C(C)=C\CC[C@H](C)/C=C/C=C(\C)CCCC2=CCN(CCC(C)C)C2=O)OC1=O [EPI-SARCOTRINE A] | 3.9 (≈ 8.06 µM) | 3.8 (≈ 7.86 µM) | 4.3 (≈ 8.89 µM) | 3.4 (≈ 7.03 µM) | 4 (≈ 8.27 µM)
3 | CC1=C(O)[C@H](C/C(C)=C\CC[C@H](C)/C=C/C=C(\C)CCCC2=CCN(CCC(C)C)C2=O)OC1=O [SARCOTRINE A] | 5.5 (≈ 11.4 µM) | 5 (≈ 10.3 µM) | 15.1 (≈ 31.2 µM) | 4.1 (≈ 8.48 µM) | 5.3 (≈ 11 µM)
4 | COC1C=C(CCC/C(C)=C/C=C/[C@@H](C)CC/C=C(/C)C[C@@H]2OC(=O)C(C)=C2O)C(=O)O1 (stereo not given in full) [SARCOTIN F] | 20.1 (≈ 45.2 µM) | 10.5 (≈ 23.6 µM) | 24.1 (≈ 54.2 µM) | 7.6 (≈ 17.1 µM) | 15.2 (≈ 34.2 µM)
5 | COC(=O)C(O)C/C(C)=C\CC[C@H](C)/C=C/C=C(\C)CCCc1ccoc1 (stereo not given in full) [SARCOTIN J] | 24.3 (≈ 64.9 µM) | 8.7 (≈ 23.2 µM) | 18.1 (≈ 48.3 µM) | 7.8 (≈ 20.8 µM) | 10 (≈ 26.7 µM)
6 | CC1=C(O)[C@H](C/C(C)=C\CC[C@H](C)/C=C/C=C(\C)CCCC2=CC(=O)N(CCC(C)C)C2)OC1=O [SARCOTRINE D] | > 30 | 21.6 (≈ 44.7 µM) | > 30 | 13.2 (≈ 27.3 µM) | 25.9 (≈ 53.5 µM)
7 | C/C(=C/CC[C@@H](C)/C=C/C=C(\C)CCCc1ccoc1)CC(O)C(=O)[O-].[Na+] (stereo not given in full) [SARCOTIN I] | 25.9 | 23.7 | 24.8 | 25.7 | 23.3
8 | COC(/C=C/[C@@H](C)CC/C=C(/C)C[C@@H]1OC(=O)C(C)=C1O)C(C)(O)CCCc1ccoc1 (stereo not given in full) [SARCOTIN M] | 11.3 (≈ 25.3 µM) | 10.1 (≈ 22.6 µM) | 9 (≈ 20.2 µM) | 9.9 (≈ 22.2 µM) | 8.4 (≈ 18.8 µM)
9 | COc1cccc2c1C(=O)c1c(O)c3c(c(O)c1C2=O)C[C@@](O)(C(=O)CO)C[C@@H]3O[C@H]1C[C@H](N)[C@H](O)[C@H](C)O1 [DOXORUBICIN] | 0.13 (≈ 0.239 µM) | 0.06 (≈ 0.11 µM) | 0.02 (≈ 0.0368 µM) | 0.02 (≈ 0.0368 µM) | 0.16 (≈ 0.294 µM)
10 | CCC(C)CN1CC=C(CCC/C(C)=C/C=C/[C@@H](C)CC/C=C(/C)C[C@@H]2OC(=O)C(C)=C2O)C1=O (stereo not given in full) [SARCOTRINE C] | 5.4 (≈ 11.2 µM) | 5.3 (≈ 11 µM) | 19 (≈ 39.3 µM) | 3.8 (≈ 7.86 µM) | 6.9 (≈ 14.3 µM)
11 | CO[C@]1(Cc2ccoc2)C=C(CC/C=C(\C)CCC[C@@H](C)/C=C2\OC(=O)C(C)=C2O)C(=O)O1 [SARCOTIN G] | 7.6 (≈ 16.6 µM) | 7.3 (≈ 16 µM) | 9.1 (≈ 19.9 µM) | 5.1 (≈ 11.2 µM) | 10 (≈ 21.9 µM)
12 | CCC(C)CN1CC=C(CCC/C(C)=C/C=C/[C@@H](C)CC/C=C(/C)C[C@H]2OC(=O)C(C)=C2O)C1=O (stereo not given in full) | 25.2 (≈ 52.1 µM) | 22.3 (≈ 46.1 µM) | 27.1 (≈ 56 µM) | 15.9 (≈ 32.9 µM) | 26.8 (≈ 55.4 µM)
13 | CC1=C(O)[C@@H](C/C(C)=C\CC[C@H](C)/C=C/C=C(\C)CCCc2ccoc2)OC1=O [EPI-SARCOTIN A] | 9.8 (≈ 24.6 µM) | 6.5 (≈ 16.3 µM) | 12.3 (≈ 30.9 µM) | 5.6 (≈ 14.1 µM) | 9.6 (≈ 24.1 µM)
14 | CC1=C(O)[C@@H](C/C(C)=C\CC[C@H](C)/C=C/C=C(\C)CCCC2=CCN(CCc3ccccc3)C2=O)OC1=O [EPI-SARCOTRINE B] | 10.5 (≈ 20.3 µM) | 5.4 (≈ 10.4 µM) | 16.8 (≈ 32.5 µM) | 4.8 (≈ 9.27 µM) | 13.1 (≈ 25.3 µM)
15 | CC1=C(O)[C@H](C/C(C)=C\CC[C@H](C)/C=C/C=C(\C)CCCC2=CCN(CCc3ccccc3)C2=O)OC1=O [SARCOTRINE B] | 5.2 (≈ 10 µM) | 4.9 (≈ 9.46 µM) | 6.3 (≈ 12.2 µM) | 4.3 (≈ 8.31 µM) | 6.7 (≈ 12.9 µM)
